Measurements published in US12568972B2, “Pyridazinol compounds and derivatives, preparation methods, herbicidal compositions and applications thereof” (Qingdao Kingagroot Chemical Compound Co., Ltd., priority 2018, dated 2026).

Tests used:
Assay type in all cases: in vivo
Chenopodiaceae = test: Post-emergence test, weed control effect; conditions: after 3 weeks; for inhibition at 300 g/ha / inhibition at 150 g/ha: 504 h, fresh weight inhibition, read-out: activity level of harmful plant destruction (growth inhibition rate), Chenopodiaceae
Summary of the method: (§1)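 Weeds sown in soil-filled pots and sprayed at 2-3 leaf stage (2-3 weeks after sowing) with compound in acetone/Tween-80/water plus 80% vegetable oil methyl ester synergist at 1500 g/ha. After 3 weeks in the greenhouse, fresh-weight growth inhibition scored on a 0-10 scale (10 = completely dead).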

Setaria viridis = test: Post-emergence test, weed control effect; conditions: 504 h, after 3 weeks, fresh weight inhibition, read-out: activity level of harmful plant destruction (growth inhibition rate), Setaria viridis
Summary of the method: as §1

Echinochloa crus-galli = test: Post-emergence test, weed control effect; conditions: 504 h, after 3 weeks, fresh weight inhibition, read-out: activity level of harmful plant destruction (growth inhibition rate), Echinochloa crus-galli
Summary of the method: as §1

Galium aparine = test: Post-emergence test, weed control effect; conditions: 504 h, after 3 weeks, fresh weight inhibition, read-out: activity level of harmful plant destruction (growth inhibition rate), Galium aparine
Summary of the method: as §1

Veronica polita = test: Post-emergence test, weed control effect; conditions: after 3 weeks; for inhibition at 300 g/ha / inhibition at 150 g/ha: Veronica polita, 504 h, fresh weight inhibition, read-out: activity level of harmful plant destruction (growth inhibition rate), Veronica polita
Summary of the method: as §1

Rorippa indica = test: Post-emergence test, weed control effect; conditions: after 3 weeks; for inhibition at 300 g/ha / inhibition at 150 g/ha: Rorippa indica, 504 h, fresh weight inhibition, read-out: activity level of harmful plant destruction (growth inhibition rate), Rorippa indica
Summary of the method: as §1

Amaranthus retroflexus = test: Post-emergence test, weed control effect; conditions: after 3 weeks
Summary of the method: as §1

weeds = test: Control effect and synergistic effect of the mixture of (i) and (ii), postemergence (Gowing method); conditions: postemergence, 20 days after treatment; for Inhibitory effect of component (i) when applied alone at same dose: 30 g a.i./ha
Excerpt: Wherein, in the formula, X represented the fresh weight inhibition rate of the active ingredient A in a dosage of P, and Y represented the fresh weight inhibition rate of the active ingredient B in a dosage of Q. The statistic results are shown in Table 6.

| SMILES | inhibition at 300 g/ha (Chenopodiaceae) [%] | inhibition at 300 g/ha (Setaria viridis) [%] | inhibition at 300 g/ha (Echinochloa crus-galli) [%] | inhibition at 300 g/ha (Galium aparine) [%] | inhibition at 300 g/ha (Veronica polita) [%] | inhibition at 300 g/ha (Rorippa indica) [%] | also measured |
| --- | --- | --- | --- | --- | --- | --- | --- |
| C=CCOc1cc(C(F)(F)F)nnc1-c1ccccc1 [E, reference compound] | 0 to 20 | 0 | 0 | 0 | 0 | 0 to 20 | – |
| CCCCCCCCSC(=O)Oc1cc(Cl)nnc1-c1ccccc1 [B, reference compound] | 30 to 40 | 30 to 40 | 0 | 40 to 50 | 30 to 40 | 30 to 40 | – |
| Oc1cc(C(F)(F)F)nnc1-c1ccccc1 [Compound 1] | – | – | – | – | – | – | weed control effect (activity level), Chenopodiaceae (Chenopodiaceae; dose 2000 g/ha): 8 (Level 8: above 80% growth inhibition rate); weed control effect (activity level), Amaranthus retroflexus (Amaranthus retroflexus; dose 2000 g/ha): 10; weed control effect (activity level), Veronica polita (Veronica polita; dose 2000 g/ha): 10; weed control effect (activity level), Rorippa indica (Rorippa indica; dose 2000 g/ha): 10; Inhibitory effect of component (i) when applied alone at same dose (weeds; Abutilon theophrasti): 20; Inhibitory effect of component (i) when applied alone at same dose (weeds; Galinsoga parviflora): 30; Inhibitory effect of component (i) when applied alone at same dose (weeds; Galium aparine): 20; Inhibitory effect of component (i) when applied alone at same dose (weeds; Sisymbrium sophia): 20; Inhibitory effect of component (i) when applied alone at same dose (weeds; Veronica polita): 30 |
| CCCSC(=O)Oc1cc(C(F)(F)F)nnc1-c1ccc(F)cc1 [Compound 1-43] | – | – | – | – | – | – | inhibition at 150 g/ha (Chenopodiaceae): 100%; weed control effect, Chenopodiaceae (activity level) (Chenopodiaceae; Dose 3000 g/ha): 10; inhibition at 150 g/ha (Setaria viridis): 100%; weed control effect, Amaranthus retroflexus (activity level) (Amaranthus retroflexus; Dose 3000 g/ha): 10; inhibition at 150 g/ha (Echinochloa crus-galli): 100%; inhibition at 150 g/ha (Galium aparine): 100%; weed control effect, Veronica polita (activity level) (Veronica polita; Dose 3000 g/ha): 10; inhibition at 150 g/ha (Veronica polita): 100%; weed control effect, Rorippa indica (activity level) (Rorippa indica; Dose 3000 g/ha): 10; inhibition at 150 g/ha (Rorippa indica): 100% |
| Oc1cc(C(F)(F)F)nnc1-c1ccc(F)nc1 [Compound 207] | 100 | 100 | 100 | 100 | 100 | 100 | weed control effect (activity level), Chenopodiaceae (Chenopodiaceae; dose 2000 g/ha): 10; weed control effect (activity level), Amaranthus retroflexus (Amaranthus retroflexus; dose 2000 g/ha): 10; weed control effect (activity level), Veronica polita (Veronica polita; dose 2000 g/ha): 10; weed control effect (activity level), Rorippa indica (Rorippa indica; dose 2000 g/ha): 10 |
| Cn1nc(-c2cc(O)c(Cl)cc2Cl)c(=O)cc1C(F)(F)F [C, reference compound] | 30 to 40 | 0 | 0 | 20 to 30 | 20 to 30 | 30 to 40 | – |
| Oc1cc(C(F)(F)F)nnc1-c1ccc(F)c(F)c1 [Compound 744] | 100 | 100 | 100 | 100 | 100 | 100 | weed control effect (activity level), Chenopodiaceae (Chenopodiaceae; Dose 3000 g/ha): 10; weed control effect (activity level), Amaranthus retroflexus (Amaranthus retroflexus; Dose 3000 g/ha): 10; weed control effect (activity level), Veronica polita (Veronica polita; Dose 3000 g/ha): 10; weed control effect (activity level), Rorippa indica (Rorippa indica; Dose 3000 g/ha): 10 |
| Oc1cc(C(F)(F)F)nnc1-c1ccc(C(F)(F)F)cc1F [Compound 51] | 100 | 90 to 100 | 60 to 70 | 80 to 90 | 90 to 100 | 100 | weed control effect (activity level), Chenopodiaceae (Chenopodiaceae; dose 1000 g/ha): 10; weed control effect (activity level), Amaranthus retroflexus (Amaranthus retroflexus; dose 1000 g/ha): 10; weed control effect (activity level), Veronica polita (Veronica polita; dose 1000 g/ha): 10; weed control effect (activity level), Rorippa indica (Rorippa indica; dose 1000 g/ha): 10 |
| Oc1cc(C(F)(F)F)nnc1-c1cnn(C(F)F)c1 [Compound 844] | – | – | – | – | – | – | inhibition at 150 g/ha (Chenopodiaceae): 100%; weed control effect (activity level), Chenopodiaceae (Chenopodiaceae; dose 2000 g/ha): 10; inhibition at 150 g/ha (Setaria viridis): 100%; weed control effect (activity level), Amaranthus retroflexus (Amaranthus retroflexus; dose 2000 g/ha): 10; inhibition at 150 g/ha (Echinochloa crus-galli): 100%; inhibition at 150 g/ha (Galium aparine): 100%; inhibition at 150 g/ha (Veronica polita): 100%; weed control effect (activity level), Veronica polita (Veronica polita; dose 2000 g/ha): 10; inhibition at 150 g/ha (Rorippa indica): 100%; weed control effect (activity level), Rorippa indica (Rorippa indica; dose 2000 g/ha): 10 |
| Oc1cc(C(F)(F)F)nnc1-c1ccc(F)cc1 [Compound 32] | 100 | 100 | 100 | 100 | 100 | 100 | weed control effect (activity level), Chenopodiaceae (Chenopodiaceae; dose 1000 g/ha): 10; weed control effect (activity level), Amaranthus retroflexus (Amaranthus retroflexus; dose 1000 g/ha): 10; weed control effect (activity level), Veronica polita (Veronica polita; dose 1000 g/ha): 10; weed control effect (activity level), Rorippa indica (Rorippa indica; dose 1000 g/ha): 10 |
| COc1cc(C(F)(F)F)nnc1-c1ccccc1 [D, reference compound] | 0 to 20 | 0 | 0 | 0 | 0 | 0 to 20 | – |
| Oc1cc(C(F)(F)F)nnc1C1=CCCCC1 [Compound 1524] | 100 | 100 | – | 90 to 100 | 90 to 100 | 100 | weed control effect (activity level), Chenopodiaceae (Chenopodiaceae; Dose 3000 g/ha): 10; weed control effect (activity level), Amaranthus retroflexus (Amaranthus retroflexus; Dose 3000 g/ha): 10; weed control effect (activity level), Veronica polita (Veronica polita; Dose 3000 g/ha): 10; weed control effect (activity level), Rorippa indica (Rorippa indica; Dose 3000 g/ha): 10 |
| CNc1cnn(-c2cccc(C(F)(F)F)c2)c(=O)c1Cl [Norflurazon] | – | – | – | – | – | – | pest or weed control at 300 g/ha (weeds; post-emergence, 480 h, Abutilon theophrasti, 300 g a.i./ha, read-out: Inhibitory effect of component (ii) when applied alone at same dose): 50% |
| CS(=O)(=O)c1ccc(C(=O)C2C(=O)CCCC2=O)c(Cl)c1OCCC1OCCO1 [Lancotrione] | – | – | – | – | – | – | Inhibitory effect of component (ii) when applied alone at same dose (weeds; Abutilon theophrasti, 50 g a.i./ha): 40% |
